Values of other authors in US20240189234A1, “SILICON PARTICLES FOR DRUG DELIVERY” (NACAMED AS, priority 2021, published 2024).

Conditions: calculated log P values from Foye's Principles of Medicinal Chemistry

CN(C)C(=O)C(CCN1CCC(O)(c2ccc(Cl)cc2)CC1)(c1ccccc1)c1ccccc1 [loperamide]
log P: 4.15

COc1ccc(Cl)cc1C(=O)NCCc1ccc(S(=O)(=O)NC(=O)NC2CCCCC2)cc1 [glibenclamide]
log P: 3.08

Cc1ccccc1C(OCCN(C)C)c1ccccc1 (stereo not shown) [orphenadrine]
log P: 3.33

CC(C)=CCN1CCC2(C)c3cc(O)ccc3CC1C2C (stereo not shown) [pentazocine]
log P: 4.15

CC(=O)CC(c1ccccc1)c1c(O)c2ccccc2oc1=O (stereo not shown) [warfarin]
log P: 3.13

CC(=O)Oc1cc2c(s1)CCN(C(C(=O)C1CC1)c1ccccc1F)C2 (stereo not shown) [prasugel]
log P: 4.31

CNCCC(Oc1ccc(C(F)(F)F)cc1)c1ccccc1 (stereo not shown) [fluoxetine]
log P: 3.93

CO[C@@H]1[C@@H](OC(N)=O)[C@@H](O)[C@H](Oc2ccc3c(O)c(NC(=O)c4ccc(O)c(CC=C(C)C)c4)c(=O)oc3c2C)OC1(C)C [novobiocin]
log P: 3.74

CC(CNC1CCCCC1)OC(=O)c1ccccc1 (stereo not shown) [hexylcaine]
log P: 3.65

CN1CCC(=C2c3ccccc3C=Cc3ccccc32)CC1 [cyproheptadine]
log P: 4.92

CC(=O)N(CC(C)C(=O)O)c1c(I)cc(I)c(N)c1I (stereo not shown) [iocetamic acid]
log P: 4.57

CNCCCC12CCC(c3ccccc31)c1ccccc12 [maprotiline]
log P: 4.36

CN(C)CCC=C1c2ccccc2C=Cc2ccccc21 [cyclobenzaprine]
log P: 6.19

CC(C)[C@@]1(NC(=O)[C@@H]2C[C@@H]3c4cccc5[nH]cc(c45)C[C@H]3N(C)C2)O[C@@]2(O)[C@@H]3CCCN3C(=O)[C@H](Cc3ccccc3)N2C1=O [dihydroergocristine]
log P: 6.55

CC(COc1ccccc1)N(CCCl)Cc1ccccc1 (stereo not shown) [phenoxybenzamine]
log P: 3.69

C=C[C@H]1C[N@@]2CC[C@H]1C[C@@H]2[C@@H](O)c1ccnc2ccccc12 [cinchonine]
log P: 3.69

CN(C)CCN1C(=O)c2ccccc2N(C)c2ccccc21 [dibenzepin]
log P: 3.26

Cc1onc(-c2c(Cl)cccc2Cl)c1C(=O)N[C@@H]1C(=O)N2[C@@H]1SC(C)(C)[C@@H]2C(=O)O [dicloxacillin]
log P: 3.10

CC(CN(C)C)CN1c2ccccc2CCc2ccccc21 (stereo not shown) [trimipramine]
log P: 4.71

NCCCC[C@H](N[C@@H](CCc1ccccc1)C(=O)O)C(=O)N1CCC[C@H]1C(=O)O [Lisinopril]
log P: 3.47

Cc1cccc(Nc2ccccc2C(=O)O)c1C [mefenamic acid]
log P: 4.83

CN(C)CCCN1c2ccccc2Sc2ccc(Cl)cc21 [chlorpromazine]
log P: 5.35

CCOC(=O)C(C)(C)Oc1ccc(Cl)cc1 [clofibrate]
log P: 3.88

OC(CNCC(O)C1CCc2cc(F)ccc2O1)C1CCc2cc(F)ccc2O1 (stereo not shown) [nebivolol]
log P: 4.08

CCCCOc1cc(C(=O)NCCN(CC)CC)c2ccccc2n1 [dibucaine]
log P: 4.40

CN1CCN(CCCN2c3ccccc3Sc3ccc(Cl)cc32)CC1 [prochlorperazine]
log P: 4.65

CCN(CC)CCNc1ccc(CO)c2sc3ccccc3c(=O)c12 [hycanthone]
log P: 3.81

CC(CN1c2ccccc2Sc2ccccc21)N(C)C (stereo not shown) [promethazine]
log P: 4.89

c1ccc(CN(CC2=NCCN2)c2ccccc2)cc1 [antazoline]
log P: 3.58

CCCCN(CCCC)CCCOC(=O)c1ccc(N)cc1 [butacaine]
log P: 4.62

CN(C)CCC(c1ccc(Br)cc1)c1ccccn1 (stereo not shown) [brompheniramine]
log P: 3.24

Cc1ccccc1N1C(=O)c2cc(S(N)(=O)=O)c(Cl)cc2NC1C (stereo not shown) [metolazone]
log P: 3.16

CN(C)C/C=C(/c1ccc(Br)cc1)c1cccnc1 [zimeldine]
log P: 3.07

Clc1ccc(COC(Cn2ccnc2)c2ccc(Cl)cc2Cl)c(Cl)c1 (stereo not shown) [miconazole]
log P: 4.97

CNCC[C@@H](Oc1ccccc1C)c1ccccc1 [atomoxetine]
log P: 3.36

CCCN1C[C@H](CSC)C[C@@H]2c3cccc4[nH]cc(c34)C[C@H]21 [pergolide]
log P: 3.90

OC(c1ccccc1)(c1ccccc1)C1CCCCN1 (stereo not shown) [pipradrol]
log P: 3.61

Cc1ccc(C(=O)Oc2ccc(C(O)CNC(C)(C)C)cc2OC(=O)c2ccc(C)cc2)cc1 (stereo not shown) [bitolterol]
log P: 4.16

CCN(CC)CCOC(=O)C1(C2CCCCC2)CCCCC1 [dicyclomine]
log P: 4.64

O=C(O)c1cc(-c2ccc(F)cc2F)ccc1O [diflunisal]
log P: 3.65

COc1ccc(-c2nc(C(F)(F)F)[nH]c2-c2ccc(OC)cc2)cc1 [flumizole]
log P: 4.26

O=C(CCCCC(=O)Nc1c(I)cc(I)c(C(=O)O)c1I)Nc1c(I)cc(I)c(C(=O)O)c1I [iodipamide]
log P: 5.10

CN(C)CCOc1ccccc1Cc1ccccc1 [phenyltoloxamine]
log P: 3.46

CCN[C@@H](C)Cc1cccc(C(F)(F)F)c1 [dextrofenfluramine]
log P: 3.55

CCc1cc2c(cc1CC)CC(NC[C@H](O)c1ccc(O)c3[nH]c(=O)ccc13)C2 [indacaterol]
log P: 3.88

OCCN1CCN(CCCN2c3ccccc3Sc3ccc(Cl)cc32)CC1 [perphenazine]
log P: 3.94

CCCCCCC(=O)OCCN1CCN(CCCN2c3ccccc3Sc3ccc(C(F)(F)F)cc32)CC1 [fluphenazine enanthate]
log P: 7.29

OCCN1CCN(CC/C=C2/c3ccccc3Sc3ccc(C(F)(F)F)cc32)CC1 [flupenthixol]
log P: 3.67

CN1CCN=C(c2ccccc2)c2cc(Cl)ccc21 [medazepam]
log P: 3.89

O=C(Oc1ccccc1C(=O)O)c1ccccc1O [salsalate]
log P: 3.29

Cc1ccc(Cl)c(Nc2ccccc2C(=O)O)c1Cl [meclofenamic acid]
log P: 5.44

CN(C)CCCN1c2ccccc2Sc2ccc(C(F)(F)F)cc21 [triflupromazine]
log P: 5.16

Cc1ncc2n1-c1ccc(Cl)cc1C(c1ccccc1F)=NC2 [midazolam]
log P: 3.80

CC1(C)[C@@H](OC(=O)CCC(=O)O)CC[C@]2(C)[C@H]3C(=O)C=C4[C@@H]5C[C@@](C)(C(=O)O)CC[C@]5(C)CC[C@@]4(C)[C@]3(C)CC[C@@H]12 [carbenoxolone]
log P: 6.63

CCC(Cc1c(I)cc(I)c(N)c1I)C(=O)O (stereo not shown) [iopanoic acid]
log P: 4.65

CC[C@]1(O)C[C@@H]2CN(CCc3c([nH]c4ccccc34)[C@@](C(=O)OC)(c3cc4c(cc3OC)N(C)[C@H]3[C@@](O)(C(N)=O)[C@H](O)[C@]5(CC)C=CCN6CC[C@]43[C@@H]65)C2)C1 [vindesine]
log P: 4.94

CN(C)CCC=C1c2ccccc2COc2ccccc21 [doxepin]
log P: 3.85

OCc1cc(C(O)CNCCCCCCOCCCCc2ccccc2)ccc1O (stereo not shown) [salmeterol]
log P: 3.71

Cc1c(O)cccc1C(=O)N[C@@H](CSc1ccccc1)[C@H](O)CN1C[C@H]2CCCC[C@H]2C[C@H]1C(=O)NC(C)(C)C [nelfinavir]
log P: 7.28

CCN(CC)CCCC(C)Nc1c2ccc(Cl)cc2nc2ccc(OC)cc12 (stereo not shown) [quinacrine]
log P: 5.59

CCN(CC)CCN1c2ccccc2Sc2ccccc21 [diethazine]
log P: 5.55

CCCCCc1cc(O)c2c(c1)OC(C)(C)[C@@H]1CCC(C)=C[C@@H]21 [tetrahydrocannabinol]
log P: 6.84

COc1ccc2c(c1)[C@]13CCCC[C@@H]1[C@H](C2)N(C)CC3 [dextromethorphan]
log P: 3.89

CCN(CC)C(C)CN1c2ccccc2Sc2ccccc21 (stereo not shown) [ethopropazine]
log P: 4.77

CCC(=O)C(CC(C)N1CCCCC1)(c1ccccc1)c1ccccc1 (stereo not shown) [dipipanone]
log P: 5.10

iodoquinol
log P: 4.10

COc1ccccc1Oc1c(NS(=O)(=O)c2ccc(C(C)(C)C)cc2)nc(-c2ncccn2)nc1OCCO [bosentan]
log P: 4.36

O=C(CCCN1CCC2(CC1)C(=O)NCN2c1ccccc1)c1ccc(F)cc1 [spiperone]
log P: 3.25

COC(=O)[C@H]1[C@H]2C[C@@H]3c4[nH]c5ccccc5c4CCN3C[C@H]2C[C@@H](OC(=O)c2cc(OC)c(OC)c(OC)c2)[C@@H]1OC [deserpidine]
log P: 4.95

Cc1ccc(N(CC2=NCCN2)c2cccc(O)c2)cc1 [phentolamine]
log P: 4.08

CN1CCN(CCCN2c3ccccc3Sc3ccc(C(F)(F)F)cc32)CC1 [trifluoperazine]
log P: 4.62

O=C1CN=C(c2ccccc2)c2cc(Cl)ccc2N1CC1CC1 [prazepam]
log P: 3.70

c1ccc2c(c1)Sc1ccccc1N2CCN1CCCC1 [pyrathiazine]
log P: 4.15

CN1CCC2=C(C1)C(c1ccccc1)c1ccccc12 (stereo not shown) [phenindamine]
log P: 3.81

CC(C)(C)NC[C@H](O)COc1ccccc1C1CCCC1 [penbutolol]
log P: 4.02

CO[C@H]1C[C@H](O[C@H]2[C@H](C)[C@@H](O[C@@H]3O[C@H](C)C[C@H](N(C)C)[C@H]3OC(C)=O)[C@@H](C)C[C@@]3(CO3)C(=O)[C@H](C)[C@@H](OC(C)=O)[C@@H](C)[C@@H](C)OC(=O)[C@@H]2C)O[C@@H](C)[C@@H]1OC(C)=O [troleandomycin]
log P: 3.46

CC[C@H]1CN2CCc3cc(OC)c(OC)cc3[C@@H]2C[C@@H]1C[C@H]1NCCc2cc(OC)c(OC)cc21 [Emetine]
log P: 3.82

CCCCc1cc2ccccc2c(OCCN(C)C)n1 [dimethisoquin]
log P: 4.04

CCCCNc1ccc(C(=O)OCCN(C)C)cc1 [tetracaine]
log P: 3.75

Clc1ccc(C/C(=C\CN2CCCC2)c2ccccc2)cc1 [pyrrobutamine]
log P: 4.57

CC[C@]1(O)C[C@H]2CN(CCc3c([nH]c4ccccc34)[C@@](C(=O)OC)(c3cc4c(cc3OC)N(C=O)[C@H]3[C@@](O)(C(=O)OC)[C@H](OC(C)=O)[C@]5(CC)C=CCN6CC[C@]43[C@@H]65)C2)C1 [vincristine]
log P: 5.75

CCCCc1nc(Cl)c(CO)n1Cc1ccc(-c2ccccc2-c2nn[nH]n2)cc1 [losartan]
log P: 3.46

O=C(Nc1ccccc1)OCC(CN1CCCCC1)OC(=O)Nc1ccccc1 (stereo not shown) [diperodon]
log P: 4.65

CN[C@H]1CC[C@@H](c2ccc(Cl)c(Cl)c2)c2ccccc21 [sertraline]
log P: 5.08

CN1CCCC(CN2c3ccccc3Sc3ccccc32)C1 (stereo not shown) [mepazine]
log P: 5.04
